Turning to `O=C(NO)[C@H](CNS(=O)(=O)c1ccc(OCc2ccc(Cl)c(Cl)c2)cc1)N1CCCCC1`, the melting point (commonly the temperature, or range, at which the solid turns liquid) is 166 °C.
The same measure for `Cc1cc(SCc2ccc(OCc3ccccn3)cc2)ccc1OCC(=O)O`: 150 °C; for `Clc1nccc(-c2ccc(Cl)c(Cl)c2)n1`: 126 to 127 °C.
The same measure for `CCCCCCCCSc1nc(SCCCCCCCC)nc(-c2cc(C)c(O)c(C)c2)n1`: 75 to 76 °C; for `CCCCn1nc(C)c(C=O)c1Cc1ccc(-c2ccccc2-c2nnn[nH]2)cc1`: 64 to 70 °C.
The same measure for `COCc1nc2c(N)nc3cc(CCC(N)=O)ccc3c2n1CC(C)(C)O`: 228 to 230 °C.
For the molecule `O=C(Nc1ccccn1)c1ccc(OC(F)F)c2oc3ccc(C(F)(F)F)cc3c12`, the melting point lay within 169 to 170 °C.
Then `CC=Cc1c(N)nc(-c2ccc(C(F)(F)F)cc2)nc1C(=O)OC`, with 123 to 125 °C.
Then `COc1ccc(-c2[nH]nc3c2C(=O)c2c(NC(=O)Cc4ccc(N=[N+]=[N-])cc4)cccc2-3)cc1`, with greater than 300 °C; and `CC(C)(C)OC(=O)c1ccc(C(=O)O)cc1`, with 100 to 102 °C.
Then `CN1CC(=O)NC1=NC(=O)Nc1cccc(Cl)c1`, with 180 °C.
As to `Cc1nc(CS(C)(=O)=O)nc(OC(=O)NN2CCOCC2)c1C`, the melting point amounted to 147 °C.
The same measure for `COc1ccc(C(=C/C=C/C(=O)Nc2ccc(Cc3cccnc3)cc2)c2ccc(OC)cc2)cc1`: 185 to 186 °C.
The same measure for `O=C(O)C(=O)Cc1ccsc1`: 203 to 204 °C.
With `CN(C)Cc1cc(NC(=O)OC(C)(C)C)c(N)cc1-c1ccc(F)cc1`, the melting point lay in the range of 97 to 125 °C.
The molecule `CC(=O)NCc1ccc2ccn(C3CCN(CCCCc4ccc(F)cc4)CC3)c2c1` came in with a melting point of 59 to 60 °C.
`COc1ccc(Br)cc1C(=O)C(Br)C(Br)c1ccc(Br)cc1` (configuration not stated) showed a melting point of 158 to 159 °C.
Then `CCCn1ccc2c(c1=O)C(c1ccccc1)C(C(=O)OCC)=C(C)N2` (configuration not stated), with 215 to 217 °C.
`COCOCc1nc(-c2ccccc2)oc1C=O` yielded a melting point of 51 to 52 °C.
Then `COC(=O)c1cc(OCc2nc(-c3ccccc3)oc2C)no1`, with 123 to 124 °C.
Then `C=COCCONC(=O)c1ccc(F)cc1Nc1ccc(I)cc1F`, with 104 °C.
`Brc1c(-c2ccccc2)n[nH]c1Sc1ccccc1` gave a melting point of 121 to 122 °C.
Consider `Cc1c(Cl)ccc(N)c1Cl`, for which the melting point fell in the range of 56 to 57.5 °C.
Then `C=CCOc1cc(COC2CCCCO2)ccc1OCCI` (configuration not stated), with 103 to 104 °C.
Then `CCOC(=O)c1ccc2c(c1)C(=CCCI)CN2`, with 81 °C.
Then `CC(CO)Nc1cc(Oc2nn(C)c(C(F)(F)F)c2Cl)ccc1N` (configuration not stated), with 110 to 112 °C.
The molecule `N#CC1=C(Nc2ccc(F)cc2)c2ccccc2CC1` returned a melting point of 151 to 153 °C.
`COc1ccc(C2CCc3c(OC(C)=O)cc(OC(C)=O)cc3O2)cc1OC(C)=O` (configuration not stated): the melting point lay in the range of 106 to 107 °C.
Molecule `CC(C)(C)OC(=O)C(ON1CCNC1=Nc1c(Cl)cccc1Cl)c1ccccc1` (configuration not stated) displayed a melting point of 88 to 90 °C.
`N#CC(C#N)c1cccc(Br)c1` gave a melting point of 97 to 99 °C.
As for `COC(=O)C1=C(C)NC(C)=C(C(=O)OCCN2C(=O)c3ccccc3C2=O)C1c1cccc(C)c1` (configuration not stated), the melting point was in the range of 188 to 190 °C.
Then `CC(=O)c1c(C)c2cnc(N)nc2n(C2CCCC2)c1=O`, with 182 to 186 °C; and `CO[C@@H](C(=O)N[C@H]1CC[C@@H](OC(=O)C2CCCC2)CNC1=O)[C@H](O)[C@@H](O)[C@H](O)/C=C/C(C)(C)C`, with 75 to 76 °C.
For `CNc1ncc(-c2ccccc2)c(-c2ccccc2)n1`, the melting point lay in the range of 136 to 138 °C.
In turn, `CC(=O)OCCCCCCOc1ccccc1C(=O)Nc1ccc(C(=O)N2CCCCc3ccccc32)cc1` showed a melting point of 145 to 146 °C.
In turn, `COC(=O)c1ccc2[nH]cc(CCCCN3CCN(c4ccccc4OC)CC3)c2c1` displayed a melting point of 195 to 196 °C.
Then `NS(=O)(=O)C(Br)(Br)S(=O)(=O)c1ccc(Br)cc1`, with 192 °C.
The same measure for `O=CC(=Cc1ccccc1OCc1ccc(Br)cc1)C(C=O)=Cc1ccccc1OCc1ccc(Br)cc1`: 210 to 211 °C; for `COC(=O)CCc1ccc(CNC(=O)[C@@H](CCCNC(N)=N[N+](=O)[O-])NC(=O)C(c2ccccc2)c2ccccc2)cc1`: 159 to 161 °C; for `CC(C)c1ccc(S(=O)(=O)N2CCCC2c2ccc(F)cc2)cc1` (racemic): 77 °C.
`CCN(CC)CC(=O)OC1CC2(C)C(C(C)=O)CCC2C2CCC3CC(O)C(Cl)CC3(C)C12` (configuration not stated) showed a melting point of 182 to 187 °C.
Then `Cc1c(-c2ccccc2)oc2c(CC(=O)O)cccc2c1=O`, with 191 to 192 °C; and `COc1cc(CN2CCC(=C3c4ccccc4CCn4ccnc43)CC2)cc(OC)c1OCc1ccc2ccccc2n1`, with 215 °C.
As to `CCC(=O)NCCC1CCc2ccc3ncoc3c21` (configuration not stated), the melting point was in the range of 89 to 90 °C.
Molecule `Cc1ccc(NC(=O)c2ccc([N+](=O)[O-])cc2)cc1` showed a melting point of 140 to 146 °C.
The same measure for `O=S1(=O)CCC(=NO)C1=NO`: 181 °C; for `Cc1ccccc1NNC1=NCCS1`: 126 to 127 °C; for `CCc1c(C(=O)C(C)C)c2ccc(C#N)cc2n1Cc1ccccc1Cl`: 132 to 134 °C.
Then `CCOC(=O)C=Cc1ccc(OCc2nc(-c3ccccc3)oc2C)cc1`, with 145 to 146 °C; and `C[C@@H](n1ncn(-c2ccc(OC(F)(F)F)cc2)c1=O)[C@@]1(c2ccc(F)cc2F)CO1`, with 103 to 106 °C; and `CCOC(=O)C(CCCCCCN1C(=O)c2ccccc2C1=O)(NC(C)=O)C(=O)OCC`, with 68.5 to 70 °C.
Then `CCOc1cc2ncc(C#N)c(Nc3ccc4c(=O)[nH][nH]c(=O)c4c3)c2cc1OCC`, with greater than 270 °C; and `CN(c1ccncc1)c1csc2ncccc12`, with 143 to 145 °C; and `CC(C)Sc1nc(-c2nn(C)c(OC(F)F)c2Cl)c(F)cc1Cl`, with 63 to 64 °C.
The molecule `COc1ccc(N2CCN(C[C@@H](O)COc3cccc(-c4noc5ccsc45)c3)CC2)cc1` showed a melting point of 110 to 113 °C.
For `Cc1nc2cccc(Cl)c2n1-c1ccccc1`, the melting point was 103 to 105 °C.
Then `CCOC(=O)C1=C(COCc2cc(=O)n(C)c(N)n2)NC(C)=C(C(=O)OC)C1c1cccc(Cl)c1Cl` (configuration not stated), with 202 to 205 °C.
The molecule `O=C(O)COc1ccc(C(=O)c2cccc(Cl)c2)c(Cl)c1Cl` showed a melting point of 155 to 156 °C.
Then `O=C(CCCl)N1CCc2ccc([N+](=O)[O-])cc21`, with 127 to 128 °C.
The same measure for `CC(C)(CCCCCC(O)CCCCCC(C)(C)CC(=O)c1cccnc1)COC(=O)c1cccnc1` (configuration not stated): 65 to 67 °C.
Then `O=C(CCCOc1ccccc1OCc1ccccc1)C(F)(F)F`, with 50 to 51 °C; and `COc1ccc(-c2cnn3c(N)c(-c4ccc(F)c(Cl)c4)c(C)nc23)cc1OC`, with 235 to 238 °C.
Regarding `CCN(C)c1nc2cccc(C(=O)OC)c2n1Cc1ccc(-c2ccccc2C#N)cc1`, the melting point lay in the range of 66 to 69 °C.
`CC(NC(=O)Cc1cc(F)cc(F)c1)C(=O)NC1C(=O)N(Cc2ccccc2)Cc2ccccc21` (configuration not stated) registered a melting point of 144 to 145 °C.
For `Cc1cc(C)cc(C#N)c1`, the melting point fell in the range of 51 to 52 °C.
With `COc1ccc(-c2nc(C(N)(C(F)(F)F)C(F)(F)F)[nH]c2-c2ccc(OC)cc2)cc1`, the melting point lay within 127 to 128 °C.
For `COCC(=O)Nc1ccc2ncnc(Nc3cccc(Cl)c3)c2c1`, the melting point lay within 177 to 180 °C.
The same measure for `Cc1c(SCCN2CCOCC2)ccnc1CSc1nc2ccccc2n1C(=O)N(C)C`: 117 to 119 °C; for `COC(=O)c1[nH]c2cc(C)c(C)cc2c1-c1ccc(O)cc1`: 247 to 248 °C.
Consider `COc1cc2c(cc1Nc1ncc(Cl)c(Nc3ccccc3S(=O)(=O)N3CCCC3)n1)CCN(CC(=O)N(C)C)CC2`, for which the melting point is 67 to 74 °C.
For `Cc1cc(-c2cccc(C(=O)CC(=O)OC(C)(C)C)c2)on1`, the melting point was in the range of 50 to 56 °C.
Then `COC(=O)COc1ccc(I)cc1`, with 69 to 70 °C; and `NC(=NCC(F)(F)F)Nc1ccnc(OCCn2ccnc2)n1`, with 149 to 150 °C.
Then `O=C(/C=C/c1cccc([N+](=O)[O-])c1)N1CCN(C(=O)c2cc(C(F)(F)F)cc(C(F)(F)F)c2)[C@H](Cc2c[nH]c3ccccc23)C1`, with 127 to 133 °C.
The same measure for `Nc1nc2c(ncn2[C@@H]2C[C@H](O)[C@@H](O)[C@H]2O)c(=O)[nH]1` (racemic): 295 °C; for `COC(=O)c1ccc(/C=C/Cc2cc3c(cc2C)CCC(C)(C)CC3)cc1`: 59 to 60 °C; for `C[C@]1(CN2CCN(C(=O)NC3CCCCC3)CC2)Cn2cc([N+](=O)[O-])nc2O1`: 98 to 101 °C.
In the case of `Oc1ccc(CNc2n[nH]c3ncnc(Nc4cccc(Cl)c4)c23)cc1Cl`, the melting point worked out at 220 °C.
The same measure for `CC(=O)NC[C@H]1CN(c2ccc(N3CCC(=C(C#N)C(=O)N4CCCC4)CC3)c(F)c2)C(=O)O1`: 125 to 128 °C.
Regarding `O=C(O)c1cccn2c(-c3ccc(F)cc3)cnc12`, the melting point is greater than 400 °C.
Then `O=C(O)Cc1cnc(Cc2ccc(NC(=O)c3ccc(C(F)(F)F)cc3)cc2)n2ccnc12`, with 205 to 207 °C; and `COc1ccc(COc2ccc(CC(=O)O)cc2Cl)cc1`, with 150 to 152 °C.
Take `CC(C)S(=O)(=O)n1c(N)nc2ccc(C(=CCl)c3ccccc3)cc21`: the melting point lay in the range of 180 to 181 °C.
Molecule `COc1cn(C)cc(-c2cccc(C(F)(F)F)c2)c1=O` displayed a melting point of 173 to 175 °C.
`CCCCCCNc1nc[nH]c2nccc1-2` showed a melting point of 147 to 148 °C.
Then `CCCc1nn(C)c2c(=O)[nH]c(Cc3ccc4[nH]c(=O)ccc4c3)nc12`, with greater than 300 °C; and `COC(=O)c1nc2c(c(-c3cccs3)nn2-c2ccccc2)c(N)c1C(=O)OC`, with 178 to 180 °C.

The record behind these values is a melting point compilation (Tetko et al.; mined from patent text by program, amines drawn as free bases though some values may be those of a salt).
